Tested on: THP-1 viability, CellTiter-Glo luminescence, 72 h
Assay: PubChem AID 2252

SMILES	EC50 [µM]
C=CCNc1ncnc2c1[nH]c1ccc(Cl)cc12	7.13
Clc1ccc2[nH]c3c(c2c1)CCc1cn[nH]c1-3	31.3
COc1ccc2sc(N(CCCN(C)C)C(=O)c3ccc(S(=O)(=O)N4CCc5ccccc5C4)cc3)nc2c1	4.42
CN1CCN(c2nc3cc(C(F)(F)F)ccc3n3cccc23)CC1	42.3
CC1CCC(C(C)C)C(OC(=O)Cn2c(-c3ccc(Cl)cc3)[n+](C)c3ccccc32)C1 (configuration not stated)	2.22
c1ccc(Nc2nc(NCc3ccco3)c3ccccc3n2)cc1	4.95
c1ccc(Nc2ccnc(Nc3ccccc3)n2)cc1	41.7
CN1CCN(C(c2cccc(Cl)c2)c2ccccc2Cl)CC1 (configuration not stated)	35
CCCSc1nc2cc(OC)c(OC)cc2c(=N)n1CCCN1CCOCC1	45.2
CC1=C([N+](=O)[O-])C(c2ccccc2)C2=C(N1)c1ccccc1C2=O (configuration not stated)	1.01
OC1(c2ccc(Cl)cc2)CCN(Cc2c[nH]c3ccccc23)CC1	9.75
CN1CCc2c(sc(NC(=O)c3ccc([N+](=O)[O-])o3)c2C(N)=O)C1	0.7
OC1CCCN(Cc2ccc3ccc4cccc5ccc2c3c45)C1 (configuration not stated)	15.2
COc1cc([N+](=O)[O-])cc(/C=N/NC(=O)CSc2ccccn2)c1O	34.7
Cc1cc(OCCCCCNCCO)cc(C)c1Cl	21.2
O=C(CCN1CCN(c2ccccc2F)CC1)c1ccc(Br)cc1	17
CN1CCN(CC(=O)N2CCn3c4c(c5cc(C6CCCCC6)ccc53)CCCC42)CC1 (configuration not stated)	6.66
Clc1ccc(CN2CCc3c([nH]c4ccccc34)C2)cc1Cl	8.16
CCOC(=O)C1=C(O)c2ccccc2C(=O)/C1=C\c1ccc(C)cc1	23.3

SMILES	EC50 [µM]
c1ccc2c(c1)CCN(c1nc3ccccc3n3cnnc13)C2	24.8
CC(C(=O)NC1C=CS(=O)(=O)C1)N1C(=O)/C(=C/c2cccc(Cl)c2)SC1=S (configuration not stated)	24.5
COc1cccc2[nH]c3c(N4CCN(Cc5ccc6c(c5)OCO6)CC4)ncnc3c12	42.2
CN(C)CCCn1c(SCC(=O)N2c3ccccc3Sc3ccccc32)nc2ccccc2c1=O	14.2
Cc1[nH]nc2c1C(C1CC=CCC1)C(C#N)=C(N)O2 (configuration not stated)	13.9
CCCCCOc1ccc(CSC2=NCCN2)cc1[N+](=O)[O-]	20
Cc1cc(O)c2c(c1)C(=O)C13C(=C2O)C(=O)[C@H]2[C@@H](O)[C@@H]1[C@H]1[C@H](O)[C@@H]3C(=O)C3=C(O)c4c(O)cc(C)cc4C(=O)C312 (some centres not stated)	6.36
COc1ccc(Nc2c3ccccc3nc3ccccc23)cc1	8.99
O=C(O)c1cn(C2CC2)c2cc(N3CCN(S(=O)(=O)c4ccc5c(c4)OCCO5)CC3)c(F)cc2c1=O	< 0.1
CCCCCCCSc1cc(OC)c(CCNC)cc1OC	10.2
CCCCCCOC(=O)C[N+](C)(C)CCOC1CC2CCC1(C)C2(C)C (configuration not stated)	2.08
Cc1nn(-c2nc3ccccc3[nH]2)c(N)c1-c1ccccc1	28.7
c1ccc2cc3c(NCCN4CCOCC4)ccnc3cc2c1	3.7
C#CCOCCOCCOCCNc1nc(N2CCN(C(=O)CCCCCCCCCCNC(=O)Cn3cc(C[C@@H](C)O)nn3)CC2)nc(N2CCN(C(=O)CCCCCCCCCCNC(=O)[C@H](CCCN=C(N)N)n3cc(C[C@@H](C)CC)nn3)CC2)n1	14.3
O=C(CSc1ccc(Cl)cc1)c1ccco1	< 0.1
c1ccc(CN2CCC(Nc3nc(-c4ccccc4)nc4ccccc34)CC2)cc1	17.6
Cc1ccc(Nc2cc(C)c3c(O)cccc3n2)cc1C	23.8
CCn1cc(C(=O)NCCc2ccccc2)c(=O)c2cc(F)c(N3CCN(C)CC3)cc21	35.4
CCCCNC(=S)Nc1ccc([N+](=O)[O-])cc1	28.8

SMILES	EC50 [µM]
O=C(CCN1CCOCC1)N/N=C/c1cc(Br)cc(Br)c1O	24.8
O=C(Cn1cc[n+](CC(=O)c2ccc(Cl)cc2Cl)c1)c1ccc(Cl)cc1Cl	16.1
CCN(CC)C(=S)SSC(=S)N(CC)CC	21.9
O=C(N/N=C/c1ccc([N+](=O)[O-])o1)C1CCCC1	< 0.1
C/C(=N\NC(=O)c1ccccc1O)c1cccs1	22.7
NCCCC[C@H]1CN=C(N)N1CCC12CC3CC(CC(C3)C1)C2	49.4
Nc1c2ccccc2nc2ccccc12	4.83
Cc1cc(C)c(OCCCCNCc2ccccc2)c(Cl)c1	12.2
CCOc1cc(CNCCCN2CCOCC2)cc(Br)c1OCC(=O)Nc1cccc(C(F)(F)F)c1	8.24
Oc1ccc(/C=N/Nc2nccnc2Cl)c(O)c1	1.63
CC(=O)NNC(=S)NC(=O)c1ccccc1	44.8
CCC[C@H](CN[C@@H](CNC)[C@H](C)CC)NCCc1cc(C(F)(F)F)cc(C(F)(F)F)c1	4.07
O=C(CCN1Cc2ccccc2C1)c1ccc2c(c1)OCCO2	19
Cn1cnc2cc(NC(=O)c3cccs3)ccc21	< 0.1
Cc1cc(C)n(-c2nc(SCCN(C)C)c3c4c(sc3n2)CCCC4)n1	3.25
CCCCCCCCCCCCCCCCn1cc[n+](C)c1	0.74
N#Cc1ccc(C2=NC(C(F)(F)F)(C(F)(F)F)c3c(n(Cc4ccco4)c(=O)[nH]c3=O)N2)cc1	31.2
COc1ccc(NC2=NC3(CCCCC3)N=C(N)N2)cc1	27
O=C1c2cccc3cccc(c23)C(=O)C1(O)O	30.2
